Reference: EPA's ToxValDB 9.5 (doi:10.2903/j.efsa.2008.183r)
Values after ≈ are worked out from the molar mass of the structure shown.

Experiments:
Colinus virginianus = conditions: acute, oral, mortality; for LC50: diet
Oncorhynchus mykiss = conditions: acute; duration: 96 hours; mortality
Rattus norvegicus = conditions: inhalation
Anas platyrhynchos = conditions: short-term; oral; feed; mortality
Coturnix japonica = conditions: reproduction developmental; reproduction
[1] = chronic, duration: 2 years, no effects
[2] = reproduction developmental, mortality
[3] = subchronic, duration: 90 days, no effects

Row | SMILES | LC50 (Colinus virginianus) [mg/kg] | LD50 (Colinus virginianus) [mg/kg-day] | LC50 (Oncorhynchus mykiss) [ng/mL] | NOAEL (Rattus norvegicus; [1]) [mg/kg-day] | NOAEL (Rattus norvegicus; [2]) [mg/kg-day] | NOAEL (Rattus norvegicus; [3]) [mg/kg-day] | LC50 (Anas platyrhynchos) [mg/kg] | NOEC (Coturnix japonica) [mg/kg-day]
1 | P [Phosphine] | 124 | ≤ 9.2 | 4.68 (≈ 0.138 µM) | 1.1 | 1.9 | 1.1 | 762 | 
2 | [Ca+2].[Ca+2].[Ca+2].[P-3].[P-3] [Tricalcium diphosphide] | 330 | < 24.7 |  | 1.1 | 1.9 | 1.1 | 2040 | 
3 | [PH]=[Zn].[PH]=[Zn].[Zn] [Zinc phosphide (Zn3P2)] | 469 | < 35 |  |  |  |  | 2880 | < 3.5
